US4530840A, “Injectable, long-acting microparticle formulation for the delivery of anti-inflammatory agents” (priority 1982, dated 1985)

Tests used:
[1] = In vitro release / dissolution of methylprednisolone acetate in 50 wt % aqueous ethanol at 37° C.; format: physicochemical; conditions: unencapsulated
Description: The in vitro release of methylprednisolone acetate from microparticles into a receiving fluid comprising 50 wt % of aqueous ethanol maintained at 37° C. was measured.
Triplicate samples of 20 mg of microparticles were weighed and each sample was placed in an 8-oz bottle containing 150 mL of 50 wt % aqueous ethanol. […] Next, the bottles were sealed with a thin sheet of Teflon and a screw cap to prevent evaporation. The bottles were then placed in an Eberbach shaker bath oscillating at 120 cycles/min and maintained at 37° C. The amount of drug released from the microparticles as a function of time was measured by determining the absorbance of the aqueous ethanol receiving fluid at 247 nm and by using the following equation based on Beer's Law.
methylprednisolone acetate in g/ml.

[2] = Saturation solubility in 50 wt % aqueous ethanol; format: physicochemical; conditions: organic solvent or mixture, 50 wt % of aqueous ethanol

- dissolution complete [1]: 30 min
- solubility [2]: > 3 mg/mL
SMILES: CC(=O)OCC(=O)[C@@]1(O)CC[C@H]2[C@@H]3C[C@H](C)C4=CC(=O)C=C[C@]4(C)[C@H]3[C@@H](O)C[C@@]21C [Methylprednisolone acetate, 6α-methylprednisolone acetate]
